Laboratory results: US12543767B2, “Oral supplements containing enriched phenolic compound extracts combined with organic acid sodium salts, creatines and/or creatine salts” (Phenolics, LLC, priority 2021, dated 2026)
Where “and” joins values, the source holds several entries; their conditions need not be identical. Identical values can stand only once.

Key:
men = assay: Clinical study: fatigue test, 50 maximal unilateral isokinetic leg extensions, before and after 28 days of supplementation; assay type: in vivo; conditions: for Peak Torque: mean of first three repetitions
Procedure: The supplements were designed to be as similar as possible in volume, color, and taste, and included 5.0 g of phosphocreatine disodium salts plus 200 mg of blueberry extract in the supplements for the Phosphocreatine/Blueberry Group, 3.0 g of creatine monohydrate for the Creatine Group, and microcrystalline cellulose for the placebo group. The bulk powder mixtures were sieved through a 60-mesh sieve to ensure inform particle size and to get rid of the agglomerates. They were then blended for one hour using an Erweka V-mixer (Model AR 403, Erweka America Inc., Edison, NJ) prior to packaging. Homogeneity of mixing was visually confirmed with the coloring agents used. Blended powders were accurately weighed (mass±1%) into individual foil lined pouches using a calibrated balance (Model SX 410, Denver Instruments, Bohemia, NY) and heat sealed. Five quality control samples were randomly selected from the packaged batch throughout the packaging process to ensure even distribution of contents, verified by mass for all samples and for creatine content in non-placebo samples by HPLC analysis.
The study was implemented as a double-blind, placebo-controlled, parallel design study. The study included a familiarization visit with each of the participants, a pre-supplementation test visit, 28 days of daily supplementation, and a post-supplementation test visit. During the testing visits, the subjects performed the fatigue test of Thorstensson and Karlsson which consisted of 50 maximal, unilateral, concentric, isokinetic leg extensions of the left leg at 180°·s^−1.
After completion of the pre-supplementation test visit, the participants were randomly assigned to one of the three groups described above. The subjects were provided with 28 days of individually packaged packets of powder of their assigned supplement and were instructed to mix the contents of the packet with 8 oz of water and drink it immediately after mixing. The subjects were instructed to maintain their usual exercise and dietary habits throughout the study. Each subject completed a 3-day dietary recall form and a 7-day exercise recall form prior to the pre-supplementation testing visit and prior to the post-supplementation testing visit to determine if there were changes in total caloric and macronutrient intake as well as exercise time during the supplementation period.
Before and after the 28 day supplementation regimens, peak torque, average power and percent decline for peak torque and average power were assessed from a fatigue test consisting of 50 maximal, unilateral, isokinetic leg extensions at 180°·s^−1.
During both pre-supplementation and post-supplementation test visits, peak torque and average power were assessed during the fatigue tests. Peak torque and average power were defined as the mean values from the first three repetitions of the fatigue test. Average power was operationally defined in the as the time averaged, integrated area under the isokinetic torque curve. To calculate the average power, the voltage-time relationships were converted to the isokinetic torque curve by converting the voltage to torque in N·m based on a regression equation. Integration of the area under the torque curve was accomplished using a custom LabVIEW program (National Instrument, Austin, TX, USA) and the average power was then calculated by dividing the integrated area under the torque curve by the time for each isokinetic repetition.

[1] = tested on: CaCo2 cell model for intestinal barrier; assay: Diffusion of extract polyphenols/flavonoids through confluent CaCo2 monolayer in side by side diffusion cells; assay type: in vitro ADME; conditions: 10 mM alpha, beta or gamma cyclodextrin with blueberry polyphenol solution ~1 mg/ml
[2] = pre- to post-supplement, 28 days, monohydrate

Row | SMILES | Average Power (men; Post-Supplement (28 days)) | Peak Torque (men; Post-Supplement (28 days)) | Average Power (men; Pre-Supplement) | Peak Torque (men; Pre-Supplement) | Average Power Change (%) (men; [2]) | Peak Torque Change (%) (men; [2]) | effect of cyclodextrin on permeation of blueberry phenolics thru the CaCo2 membrane [1]
1 | CN(CC(=O)O)C(=N)N.O [Creatine Group, creatine monohydrate] | 159.78 ± 31.20 Watts | 111.97 ± 24.50 | 143.42 ± 33.84 Watts | 99.95 ± 22.50 | 10.22% and 10.22 ± 13.62% | 10.47% and 10.47 ± 11.03% | 
2 | OC[C@H]1O[C@@H]2O[C@H]3[C@H](O)[C@@H](O)[C@@H](O[C@H]4[C@H](O)[C@@H](O)[C@@H](O[C@H]5[C@H](O)[C@@H](O)[C@@H](O[C@H]6[C@H](O)[C@@H](O)[C@@H](O[C@H]7[C@H](O)[C@@H](O)[C@@H](O[C@H]8[C@H](O)[C@@H](O)[C@@H](O[C@H]1[C@H](O)[C@H]2O)O[C@@H]8CO)O[C@@H]7CO)O[C@@H]6CO)O[C@@H]5CO)O[C@@H]4CO)O[C@@H]3CO [beta cyclodextrin] |  |  |  |  |  |  | best effect on increasing the permeation
